How the values were obtained:
[1] = system: patients with partial epilepsy; experiment: MADRS, open label extension of phase 3 study, Trial 2; format: in vivo, human
Experimental: During a further open label extension of a phase 3 study with ESL, the effect on depressive symptoms in patients taking at least one other anti-epileptic drug was assessed using the Montgomery Åsberg Depression Rating Scale (MADRS) at the end of treatment (after one year or after early discontinuation) and results compared with those at baseline. Patients were treated with ESL dosages in the range of 400-1500 mg, the majority being treated once daily with 800 mg ESL.

[2] = Plasma bioanalysis in CCI mice after oral ESL; format: in vivo; conditions: oral ESL
[3] = system: peripheral nerve filaments of CCI mice; experiment: Ectopic discharge of peripheral nerve filaments in CCI mice (electrophysiological recording); format: in vivo; conditions: for ectopic discharge firing rate: 5 preparations
Description: Adult male BL CB F1 mice, weighing 25-30 g at the time of surgery and 26-38 g at the time of electrophysiological experiments, were used. The baseline paw withdrawal threshold (PWT) was examined using a series of graduated von Frey hairs (see below) on 3 consecutive days before surgery and re-assessed on the 7th and on the 14th days after surgery, before electrophysiological recording. The animals were killed by an overdose of pentobarbitone on completion of the study. The chronic constriction injury (CCI) model was prepared following the standard protocols described previously (Bennett and Xie, 1988). Mice were anaesthetised and the lateral side of the left thigh was shaved and sterilized with 75% ethanol. A small incision of approximately 0.5 cm was made parallel to the femur. The muscle was carefully separated to expose the sciatic nerve. Three loose ligatures were placed on the sciatic nerve with 5-0 suture silk thread at approximately 1 mm intervals. The wound was closed in layers with suture silk 4-0 and the animals were placed in a recovery chamber with the temperature controlled and set at 30° C. A dose of amoxicillin (0.02 mL, 3 mg) was routinely injected i.p. after surgery to prevent infection. The animals were returned to their home cages after complete recovery of consciousness and freedom of movement. For the first 2 days after surgery, the animals were closely monitored at least twice daily and subsequently, at least once daily until compound testing. Each animal was placed in a perspex cage on a metal mesh. A series of von Frey filaments (0.07 g, 0.16 g, 0.4 g, 0.6 g, 1.0 g) were applied to the plantar surface of the hind-paw, from below. The filaments were applied in ascending order (starting with the lowest force 0.07 g) to both ipsilateral and contralateral hind-paws. Each filament was applied 10 times with a protocol of one second on, one second off. The PWT was defined as being the lowest force required to elicit at least 5 paw withdrawal responses out of 10 trials. The baseline PWT was tested for 3 consecutive days before surgery and re-assessed on the 7th and 14th days after surgery to monitor the development of mechanical allodynia. Only those mice showing significant mechanical allodynia (PWT≦0.2 g) were selected for subsequent electrophysiological experiments. The mice were re-anaesthetised and the sciatic nerve was exposed via a dorsal incision on the hind-limb. The skin was secured (stitched) to a metal O-ring to form an oil pool for recording nerve activity. A reference electrode was connected to the metal O-ring to form a closed circuit with the nerve recording electrode. To record ectopic discharge generated from the intact animal, under a microscope, the small bundles of sural nerve (distal to the ligated area) were repeatedly teased and looped onto a unipolar silver electrode for examination. To facilitate the recording of ectopic discharge generated from the neuroma (ligated area) or from the DRG, the sciatic nerve was separated carefully from the surrounding connective tissues, sectioned at a more proximal site leaving the injured area intact or near the injured area leaving the more proximal part intact. A small bundle of nerve filaments were teased from the sciatic nerve from either the distal or proximal cut end of the sciatic nerve, to record neuroma-generated ectopic discharge, or from the proximal cut end to record DRG-generated ectopic discharge. The filament was looped on to a unipolar silver wire recording electrode with an indifference electrode connected to the connective tissues nearby, allowing the spontaneous activity generated from either the ligated area (sensitized axons) or from DRG (somata) to be recorded. The electrical signals were then recorded through a CED micro-1401 interface to a PC for later off-line analysis. Recording from a fibre with spontaneous activity was undertaken for at least 10 min for control and 40 min after either vehicle or ESL administration. […]

## CC(=O)O[C@H]1Cc2ccccc2N(C(N)=O)c2ccccc21 [ESL, S-(−)-10-acetoxy-10,11-dihydro-5H-dibenz/b,f/azepine-5-carboxamide]
[1]; ITT population (264 patients)
  MADRS apparent sadness, mean relative improvement: 34%
  MADRS concentration difficulties, mean relative improvement: 30%
  MADRS inability to feel, mean relative improvement: 38%
  MADRS inner tension, mean relative improvement: 31%
  MADRS lassitude, mean relative improvement: 38%
  MADRS pessimistic thoughts, mean relative improvement: 26%
  MADRS reduced appetite, mean relative improvement: 57%
  MADRS reduced sleep, mean relative improvement: 48%
  MADRS reported sadness, mean relative improvement: 40%
  MADRS suicidal thoughts, mean relative improvement: 56%
[1]; PP population (232 patients)
  MADRS apparent sadness, mean relative improvement: 38%
  MADRS concentration difficulties, mean relative improvement: 33%
  MADRS inability to feel, mean relative improvement: 35%
  MADRS inner tension, mean relative improvement: 34%
  MADRS lassitude, mean relative improvement: 39%
  MADRS pessimistic thoughts, mean relative improvement: 31%
  MADRS reduced appetite, mean relative improvement: 62%
  MADRS reduced sleep, mean relative improvement: 53%
  MADRS reported sadness, mean relative improvement: 41%
  MADRS suicidal thoughts, mean relative improvement: 60%
[1]; long-term open-label adjunctive therapy, partial epilepsy
  depressive mood as assessed by MADRS, change from baseline: statistically significant improvement from baseline
[2]
  main metabolite in plasma: mainly to eslicarbazepine
  time to complete metabolism after administration (plasma): ≤ 1 h
[3]; DRG origin, ESL 100 mg/kg i.p., P<0.05 vs vehicle
  ectopic discharge, % of control: 58.43±13.21 % of control
[3]; DRG origin, ESL 100 mg/kg i.p., control 514.3±141.0, 6 preparations
  ectopic discharge average firing rate: 274.4±117.1 imps/min
[3]; intact CCI mice, ESL 100 mg/kg ip, 30-35 min after injection, P<0.001 vs control
  ectopic discharge, % of control level: 26.6±10.6 % of control
[3]; intact CCI mice, ESL 100 mg/kg ip, 30-35 min after injection, control 2048.0±391.6, mean±SEM
  ectopic discharge firing rate: 699.8±339.7 imps/min
[3]; neuroma origin (sciatic nerve sectioned proximally), ESL 100 mg/kg ip, 30 min after injection, control 1390.6±378.5
  ectopic discharge firing rate: 643.5±249.2 imps/min
[3]; neuroma origin, ESL 100 mg/kg ip, 30 min after injection, P<0.01
  ectopic discharge, % of control levels: 36.5±12.3 % of control
